Measured values reported in US10081623B2, “Diamide macrocycles that are FXIa inhibitors” (BRISTOL-MYERS SQUIBB COMPANY, priority 2014, dated 2018).
pKi: −log10 of the molar value.

Target: purified human Factor XIa (Homo sapiens (Human), UniProt P03951)
Assay: Factor XIa assay (chromogenic substrate S-2366 hydrolysis, Ki)
Type: biochemical
Details: measured at 37° C.
Experimental: The effectiveness of compounds of the present invention as inhibitors of the coagulation Factors XIa, VIIa, IXa, Xa, XIIa, plasma kallikrein or thrombin, can be determined using a relevant purified serine protease, respectively, and an appropriate synthetic substrate. The rate of hydrolysis of the chromogenic or fluorogenic substrate by the relevant serine protease was measured both in the absence and presence of compounds of the present invention. […] A decrease in the rate of absorbance or fluorescence change in the presence of inhibitor is indicative of enzyme inhibition. Such methods are known to one skilled in the art. The results of this assay are expressed as the inhibitory constant, Ki.
Factor XIa determinations were made in 50 mM HEPES buffer at pH 7.4 containing 145 mM NaCl, 5 mM KCl, and 0.1% PEG 8000 (polyethylene glycol; JT Baker or Fisher Scientific). Determinations were made using purified human Factor XIa at a final concentration of 25-200 pM (Haematologic Technologies) and the synthetic substrate S-2366 (pyroGlu-Pro-Arg-pNA; CHROMOGENIX® or AnaSpec) at a concentration of 0.0002-0.001 M.
The Michaelis constant, Km, for substrate hydrolysis by each protease, was determined at 25° C. or 37° C. in the absence of inhibitor. Values of Ki were determined by allowing the protease to react with the substrate in the presence of the inhibitor. […] The following relationships were used to calculate Ki values: (Vmax*S)/(Km+S); (vo−vs)/vs=I/(Ki(1+S/Km)) for a competitive inhibitor with one binding site; or vs/vo=A+(B−A)/(1+(I/IC50)^n); and Ki=IC50/(1+S/Km) for a competitive inhibitor where: […]

purified human Factor XIa, sequence (P03951 388-625): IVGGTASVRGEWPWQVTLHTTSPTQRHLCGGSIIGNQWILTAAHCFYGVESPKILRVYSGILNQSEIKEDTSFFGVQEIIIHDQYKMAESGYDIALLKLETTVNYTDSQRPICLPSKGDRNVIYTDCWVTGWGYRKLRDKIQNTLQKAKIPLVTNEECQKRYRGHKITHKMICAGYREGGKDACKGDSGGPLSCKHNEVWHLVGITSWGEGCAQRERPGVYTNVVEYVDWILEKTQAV
purified human Factor XIa, sequence (P03951 19-387 partner): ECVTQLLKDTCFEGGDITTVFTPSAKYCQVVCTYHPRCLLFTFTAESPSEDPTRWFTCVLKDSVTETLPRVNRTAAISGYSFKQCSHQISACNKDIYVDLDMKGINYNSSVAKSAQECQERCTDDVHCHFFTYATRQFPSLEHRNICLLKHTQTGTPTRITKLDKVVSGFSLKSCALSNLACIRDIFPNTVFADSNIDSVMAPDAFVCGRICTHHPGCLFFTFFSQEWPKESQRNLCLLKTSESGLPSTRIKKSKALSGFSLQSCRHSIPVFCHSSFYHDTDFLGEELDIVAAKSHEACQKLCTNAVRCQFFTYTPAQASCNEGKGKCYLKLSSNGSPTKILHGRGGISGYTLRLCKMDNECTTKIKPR

pKi | Compound
6.09 | N=C(N)N1CCC(NC(=O)C2C/C=C/CCC(=O)Nc3ccccc3C(=O)N2)CC1 (racemic) [Example 31, (E)-(±)-N-(1-Carbamimidoylpiperidin-4-yl)-2,10-dioxo-1,2,3,4,7,8,9,10-octahydro-1,9-benzodiazacyclododecine-8-carboxamide]
5.83 | COC(=O)Nc1ccc2c(c1)NC(=O)CCCCCC(C(=O)NC1CCN(C(=N)N)CC1)NC2=O (racemic) [Example 4, (±)-Methyl N-{8-[(1-carbamimidoylpiperidin-4-yl)carbamoyl]-2,10-dioxo-1,2,3,4,5,6,7,8,9,10-decahydro-1,9-benzodiazacyclododecin-13-yl}carbamate]
> 8.30 | COC(=O)Nc1ccc2c(c1)NC(=O)CC/C=C/CC(C(=O)NCCc1cc(Cl)ccc1-n1cnnn1)NC2=O (single isomer, unassigned) [Example 25, (E)-Methyl N-[8-({2-[5-chloro-2-(1H-1,2,3,4-tetrazol-1-yl)phenyl]ethyl}carbamoyl)-2,10-dioxo-1,2,3,4,7,8,9,10-octahydro-1,9-benzodiazacyclododecin-13-yl]carbamate]
6.81 | COC(=O)Nc1ccc2c(c1)NC(=O)CC/C=C\CC(C(=O)NCCc1cc(Cl)ccc1-n1cnnn1)NC2=O (single isomer, unassigned) [Example 24, (Z)-Methyl N-[8-({2-[5-chloro-2-(1H-1,2,3,4-tetrazol-1-yl)phenyl]ethyl}carbamoyl)-2,10-dioxo-1,2,3,4,7,8,9,10-octahydro-1,9-benzodiazacyclododecin-13-yl]carbamate]
6.80 | COC(=O)Nc1ccc2c(c1)NC(=O)CC/C=C\CC(C(=O)NCCc1cc(Cl)ccc1-n1cnnn1)NC2=O (single isomer, unassigned) [Example 23, (Z)-Methyl N-[8-({2-[5-chloro-2-(1H-1,2,3,4-tetrazol-1-yl)phenyl]ethyl}carbamoyl)-2,10-dioxo-1,2,3,4,7,8,9,10-octahydro-1,9-benzodiazacyclododecin-13-yl]carbamate]
6.20 | COC(=O)Nc1ccc2c(c1)NC(=O)CCCCCC(C(=O)NCCC1CCN(C(=N)N)CC1)NC2=O (racemic) [Example 6, (±)-Methyl N-(8-{[2-(1-carbamimidoylpiperidin-4-yl)ethyl]carbamoyl}-2,10-dioxo-1,2,3,4,5,6,7,8,9,10-decahydro-1,9-benzodiazacyclododecin-13-yl)carbamate]
6.08 | COC(=O)Nc1ccc2c(c1)NC(=O)CCCCCC(C(=O)NCC1CCN(C(=N)N)CC1)NC2=O (racemic) [Example 5, (±)-Methyl N-(8-{[(1-carbamimidoylpiperidin-4-yl)methyl]carbamoyl}-2,10-dioxo-1,2,3,4,5,6,7,8,9,10-decahydro-1,9-benzodiazacyclododecin-13-yl)carbamate]
7.38 | COC(=O)Nc1ccc2c(c1)NC(=O)CCCCCC(C(=O)NCCc1cc(Cl)ccc1-n1cnnn1)NC2=O (single isomer, unassigned) [Example 3, Methyl N-[8-({2-[5-chloro-2-(1H-1,2,3,4-tetrazol-1-yl)phenyl]ethyl}carbamoyl)-2,10-dioxo-1,2,3,4,5,6,7,8,9,10-decahydro-1,9-benzodiazacyclododecin-13-yl]carbamate]
> 8.30 | COC(=O)Nc1ccc2c(c1)NC(=O)CCC=CCC(C(=O)NCCc1cc(Cl)ccc1-n1cnnn1)NC2=O (racemic) [Example 22, (E/Z)-(±)-Methyl N-[8-({2-[5-chloro-2-(1H-1,2,3,4-tetrazol-1-yl)phenyl]ethyl}carbamoyl)-2,10-dioxo-1,2,3,4,7,8,9,10-octahydro-1,9-benzodiazacyclododecin-13-yl]carbamate]
7.19 | COC(=O)Nc1ccc2c(c1)NC(=O)CC/C=C/CC(C(=O)NCCc1cc(Cl)ccc1-n1cnnn1)NC2=O (single isomer, unassigned) [Example 26, (E)-Methyl N-[8-({2-[5-chloro-2-(1H-1,2,3,4-tetrazol-1-yl)phenyl]ethyl}carbamoyl)-2,10-dioxo-1,2,3,4,7,8,9,10-octahydro-1,9-benzodiazacyclododecin-13-yl]carbamate]
5.66 | N=C(N)N1CCC(NC(=O)C2C/C=C\CCC(=O)Nc3ccccc3C(=O)N2)CC1 (racemic) [Example 30, (Z)-(±)-N-(1-Carbamimidoylpiperidin-4-yl)-2,10-dioxo-1,2,3,4,7,8,9,10-octahydro-1,9-benzodiazacyclododecine-8-carboxamide]
5.87 | COC(=O)Nc1ccc2c(c1)NC(=O)CCCCCC(C(=O)NCc1csc3ccc(Cl)cc13)NC2=O (racemic) [Example 8, (±)-Methyl N-(8-{[(5-chloro-1-benzothiophen-3-yl)methyl]carbamoyl}-2,10-dioxo-1,2,3,4,5,6,7,8,9,10-decahydro-1,9-benzodiazacyclododecin-13-yl)carbamate]
5.66 | COC(=O)Nc1ccc2c(c1)NC(=O)CCCCCC(C(=O)NCCc1cc(Cl)ccc1-n1cnnn1)NC2=O (single isomer, unassigned) [Example 2, Methyl N-[8-({2-[5-chloro-2-(1H-1,2,3,4-tetrazol-1-yl)phenyl]ethyl}carbamoyl)-2,10-dioxo-1,2,3,4,5,6,7,8,9,10-decahydro-1,9-benzodiazacyclododecin-13-yl]carbamate]
7.75 | COC(=O)Nc1ccc2c(c1)NC(=O)CCCCCC(C(=O)NCCc1cc(Cl)ccc1-n1cnnn1)NC2=O (racemic) [Example 1, (±)-Methyl N-[8-({2-[5-chloro-2-(1H-1,2,3,4-tetrazol-1-yl)phenyl]ethyl}carbamoyl)-2,10-dioxo-1,2,3,4,5,6,7,8,9,10-decahydro-1,9-benzodiazacyclododecin-13-yl]carbamate]
7.41 | O=C1CCC=CCC(C(=O)NCCc2cc(Cl)ccc2-n2cnnn2)NC(=O)c2ccccc2N1 (racemic) [Example 27, (E/Z)-(±)-N-{2-[5-Chloro-2-(1H-1,2,3,4-tetrazol-1-yl)phenyl]ethyl}-2,10-dioxo-1,2,3,4,7,8,9,10-octahydro-1,9-benzodiazacyclododecine-8-carboxamide]
5.58 | COC(=O)Nc1ccc2c(c1)NC(=O)CCCCCC(C(=O)N1CCCC(c3cccc(OC)c3)C1)NC2=O (racemic) [Example 10, (±)-Methyl N-{8-[3-(3-methoxyphenyl)piperidine-1-carbonyl]-2,10-dioxo-1,2,3,4,5,6,7,8,9,10-decahydro-1,9-benzodiazacyclododecin-13-yl}carbamate]
5.85 | N=C(N)N1CCC(CNC(=O)C2CC=CCCC(=O)Nc3ccccc3C(=O)N2)CC1 (racemic) [Example 29, (E/Z)-(±)-N-[(1-Carbamimidoylpiperidin-4-yl)methyl]-2,10-dioxo-1,2,3,4,7,8,9,10-octahydro-1,9-benzodiazacyclododecine-8-carboxamide]
6.15 | COC(=O)Nc1ccc2c(c1)NC(=O)CCCCCC(C(=O)NC1Cc3ccccc3NC1=O)NC2=O (racemic) [Example 7, (±)-Methyl N-{2,10-dioxo-8-[(2-oxo-1,2,3,4-tetrahydroquinolin-3-yl)carbamoyl]-1,2,3,4,5,6,7,8,9,10-decahydro-1,9-benzodiazacyclododecin-13-yl}carbamate]
